Experimental data taken from ChEMBL document CHEMBL1201862, “PubChem BioAssay data set” (2004).
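Cells were grown in 96-well plates and exposed to each compound for 48 hours at five concentrations; endpoints were interpolated linearly between bracketing concentrations, or set to the highest concentration if not reached. GI50: concentration for 50% inhibition of growth.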 Calls of active or inactive are those of the source. No stated cut-off is given here; in the data, active = GI50 up to about 1.1 µM and inactive = higher.

What was measured:
Test in all cases: NCI-60 cell line screen, 48 h
UACC-62 = system: UACC-62
RPMI-8226 = system: RPMI-8226
A549 = system: A549
SK-MEL-28 = system: SK-MEL-28
OVCAR-8 = system: OVCAR-8
NCI-H23 = system: NCI-H23
HOP-62 = system: HOP-62
ACHN = system: ACHN
NCI-H522 = system: NCI-H522
SNB-75 = system: SNB-75
HT-29 = system: HT-29
DMS-273 = system: DMS-273
COLO 205 = system: COLO 205
M14 = system: M14
UACC-257 = system: UACC-257
LOX IMVI = system: LOX IMVI
HOP-92 = system: HOP-92

Measured: GI50

Cn1cnc([N+](=O)[O-])c1Sc1nnnn1C
inactive: UACC-62 17.1 µM | RPMI-8226 23 µM | A549 99.5 µM | SK-MEL-28 14.3 µM | OVCAR-8 17.2 µM | NCI-H23 19.6 µM | HOP-62 > 100 µM | ACHN 16.2 µM | NCI-H522 6.38 µM | SNB-75 25.3 µM | HT-29 19.4 µM | DMS-273 17.7 µM | COLO 205 12.8 µM | M14 14.8 µM | UACC-257 16.3 µM | LOX IMVI 13.4 µM | HOP-92 12.3 µM

CN(C(=O)c1ccco1)C(=S)N1CCN(c2ccccc2)CC1
inactive: UACC-62 > 100 µM | RPMI-8226 > 100 µM | A549 > 100 µM | SK-MEL-28 > 100 µM | OVCAR-8 > 100 µM | NCI-H23 > 100 µM | HOP-62 > 100 µM | ACHN > 100 µM | NCI-H522 > 100 µM | SNB-75 > 100 µM | HT-29 > 100 µM | DMS-273 > 100 µM | COLO 205 > 100 µM | M14 > 100 µM | UACC-257 > 100 µM | LOX IMVI > 100 µM | HOP-92 > 100 µM

c1ccc(SC(Sc2ccccc2)=C2CCC2)cc1
inactive: UACC-62 65 µM | RPMI-8226 > 100 µM | A549 > 100 µM | SK-MEL-28 > 100 µM | OVCAR-8 > 100 µM | NCI-H23 > 100 µM | HOP-62 > 100 µM | ACHN > 100 µM | NCI-H522 > 100 µM | SNB-75 98.4 µM | DMS-273 > 100 µM | COLO 205 > 100 µM | M14 > 100 µM | UACC-257 > 100 µM | LOX IMVI > 100 µM | HOP-92 55.3 µM

C=CCC1C(=O)CC2(C)CC(=O)C(CC=C)C12C (stereo unspecified)
inactive: UACC-62 > 100 µM | RPMI-8226 > 100 µM | A549 > 100 µM | SK-MEL-28 > 100 µM | OVCAR-8 > 100 µM | NCI-H23 > 100 µM | HOP-62 > 100 µM | ACHN > 100 µM | NCI-H522 > 100 µM | SNB-75 76.9 µM | HT-29 > 100 µM | DMS-273 > 100 µM | COLO 205 > 100 µM | M14 > 100 µM | UACC-257 > 100 µM | LOX IMVI > 100 µM | HOP-92 > 100 µM

C=CCc1ccc(O)c(-c2cc(C3Oc4c(-c5cc(CC=C)ccc5O)cc(O)cc4[C@@H]3CO)ccc2O)c1 (stereo partly specified)
inactive: UACC-62 30.3 µM | RPMI-8226 24.9 µM | A549 56 µM | SK-MEL-28 26.7 µM | OVCAR-8 42.4 µM | NCI-H23 23.7 µM | HOP-62 21.4 µM | ACHN 36.2 µM | NCI-H522 20.1 µM | SNB-75 45.9 µM | HT-29 33.3 µM | DMS-273 20.4 µM | COLO 205 35 µM | M14 37.5 µM | UACC-257 73.5 µM | LOX IMVI 16.9 µM | HOP-92 12.2 µM

O=[N+]([O-])c1cc(/C=N/NS(=O)(=O)c2ccc(F)cc2)c(O)c([N+](=O)[O-])c1
inactive: UACC-62 46.3 µM | RPMI-8226 27.7 µM | A549 48 µM | SK-MEL-28 82.8 µM | OVCAR-8 24.8 µM | NCI-H23 24.9 µM | HOP-62 43.2 µM | ACHN 40.5 µM | NCI-H522 21.2 µM | SNB-75 25.9 µM | HT-29 22.3 µM | DMS-273 30.8 µM | COLO 205 18.9 µM | M14 22.9 µM | UACC-257 42.3 µM | LOX IMVI 39.5 µM | HOP-92 38.4 µM

CC1=CC(=C(c2ccc(N)c(C)c2)c2ccc(N)c(C)c2)C=CC1=N
inactive: UACC-62 2.69 µM | RPMI-8226 2.18 µM | A549 3.6 µM | SK-MEL-28 5.71 µM | OVCAR-8 1.37 µM | NCI-H23 2.97 µM | HOP-62 2.79 µM | ACHN 8.45 µM | NCI-H522 3.03 µM | SNB-75 1.51 µM | HT-29 3.64 µM | DMS-273 2.45 µM | COLO 205 1.93 µM | M14 4.95 µM | UACC-257 3 µM | LOX IMVI 4.2 µM | HOP-92 3.32 µM

COC(=O)C(=O)C(C(=O)C(=O)Nc1ccccc1[N+](=O)[O-])c1nc2ccc([N+](=O)[O-])cc2nc1O (stereo unspecified)
inactive: UACC-62 > 100 µM | RPMI-8226 > 100 µM | A549 > 100 µM | SK-MEL-28 > 100 µM | OVCAR-8 > 100 µM | NCI-H23 > 100 µM | ACHN > 100 µM | NCI-H522 > 100 µM | SNB-75 > 100 µM | HT-29 > 100 µM | DMS-273 > 100 µM | COLO 205 > 100 µM | M14 > 100 µM | UACC-257 > 100 µM | LOX IMVI > 100 µM | HOP-92 > 100 µM

CSC1C=C(C(C)C)CCC1(C)SC (stereo unspecified)
inactive: UACC-62 25.6 µM | RPMI-8226 20.9 µM | A549 31.5 µM | SK-MEL-28 19.4 µM | OVCAR-8 19.4 µM | NCI-H23 19.3 µM | HOP-62 19.5 µM | ACHN 18.7 µM | NCI-H522 16.3 µM | SNB-75 17.6 µM | HT-29 15.4 µM | DMS-273 19 µM | COLO 205 16.2 µM | M14 16.9 µM | UACC-257 15.9 µM | LOX IMVI 18.3 µM | HOP-92 16.2 µM

C[N+](C)(C)C1CC([N+](C)(C)C)C2c3ccccc3C21 (stereo unspecified)
inactive: UACC-62 > 100 µM | RPMI-8226 > 100 µM | A549 > 100 µM | SK-MEL-28 > 100 µM | OVCAR-8 > 100 µM | NCI-H23 > 100 µM | HOP-62 > 100 µM | ACHN > 100 µM | NCI-H522 > 100 µM | SNB-75 > 100 µM | HT-29 > 100 µM | DMS-273 > 100 µM | COLO 205 > 100 µM | M14 > 100 µM | UACC-257 > 100 µM | LOX IMVI > 100 µM | HOP-92 > 100 µM

C/C(=N/O)c1ccc2c(c1)/C(=N/O)c1cc(/C(C)=N/O)ccc1-2
inactive: UACC-62 14.2 µM | RPMI-8226 26.5 µM | A549 10.6 µM | SK-MEL-28 17.3 µM | OVCAR-8 16.7 µM | NCI-H23 12.9 µM | HOP-62 13.4 µM | ACHN 8.53 µM | NCI-H522 18.9 µM | SNB-75 17.9 µM | HT-29 12.6 µM | DMS-273 23.8 µM | COLO 205 17.8 µM | M14 16.4 µM | UACC-257 2.39 µM | LOX IMVI 13 µM | HOP-92 26.1 µM

COc1ccc(C(=O)C(c2ccc(OC)cc2)C2(O)C(=O)Nc3c(C)cc(Cl)cc32)cc1 (stereo unspecified)
inactive: UACC-62 23.2 µM | RPMI-8226 14.4 µM | A549 > 100 µM | SK-MEL-28 > 100 µM | OVCAR-8 92.7 µM | NCI-H23 85.5 µM | HOP-62 > 100 µM | ACHN > 100 µM | NCI-H522 28 µM | SNB-75 33.2 µM | HT-29 63.5 µM | DMS-273 58.9 µM | COLO 205 > 100 µM | M14 92 µM | UACC-257 55 µM | HOP-92 21.9 µM
